Reference: ChEMBL document CHEMBL1201862, “PubChem BioAssay data set” (2004)
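Results reflect a 48-hour exposure of cells in 96-well plates to compound at five concentrations. GI50 is the concentration that inhibits growth by half.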 The source made the active and inactive calls. Cut-off read from the data, not from the text of the source: active = GI50 up to about 1.1 µM and inactive = higher.

What was measured:
Test in all cases: growth of human tumour cells (NCI), 48 h
SK-MEL-5 = system: SK-MEL-5
A498 = system: A498
OVCAR-4 = system: OVCAR-4
MDA-MB-231 = system: MDA-MB-231
A549 = system: A549
NCI/ADR-RES = system: NCI/ADR-RES
OVCAR-8 = system: OVCAR-8
T47D = system: T47D
SW-620 = system: SW-620
HCC 2998 = system: HCC 2998
TK-10 = system: TK-10
MOLT-4 = system: MOLT-4
HOP-62 = system: HOP-62
OVCAR-3 = system: OVCAR-3
RPMI-8226 = system: RPMI-8226
NCI-H226 = system: NCI-H226
HCT-116 = system: HCT-116
SF-539 = system: SF-539
XF498 = system: XF498
HT-29 = system: HT-29
MDA-MB-435 = system: MDA-MB-435
EKVX = system: EKVX
NCI-H460 = system: NCI-H460
PC-3 = system: PC-3
HCT-15 = system: HCT-15
SNB-78 = system: SNB-78
ACHN = system: ACHN
SF-295 = system: SF-295
HOP-18 = system: HOP-18
SNB-19 = system: SNB-19
DLD-1 = system: DLD-1
SNB-75 = system: SNB-75
SK-MEL-28 = system: SK-MEL-28
KM-20L2 = system: KM-20L2
DMS-114 = system: DMS-114
M19-MEL = system: M19-MEL
KM12 = system: KM12
CAKI-1 = system: CAKI-1
SF-268 = system: SF-268
HOP-92 = system: HOP-92
SN12C = system: SN12C
DMS-273 = system: DMS-273
MDA-N = system: MDA-N
M14 = system: M14
DU-145 = system: DU-145
MCF7 = system: MCF7
UO-31 = system: UO-31
UACC-62 = system: UACC-62
RXF 393 = system: RXF 393
CCRF-CEM = system: CCRF-CEM
NCI-H23 = system: NCI-H23
Hs-578T = system: Hs-578T
Malme-3M = system: Malme-3M
IGROV-1 = system: IGROV-1
COLO 205 = system: COLO 205
SK-OV-3 = system: SK-OV-3
SR = system: SR
NCI-H522 = system: NCI-H522
U-251 = system: U-251
786-0 = system: 786-0
SK-MEL-2 = system: SK-MEL-2
LXFL 529 = system: LXFL 529
K562 = system: K562
LOX IMVI = system: LOX IMVI
OVCAR-5 = system: OVCAR-5
HL-60 = system: HL-60
UACC-257 = system: UACC-257

C/C=C1\NC(=O)[C@H]2CSSCCC=C[C@H](CC(=O)N[C@H](C(C)C)C(=O)N2)OC(=O)[C@H](C(C)C)NC1=O
GI50 (SK-MEL-5): 6.65e-05 µM (active) | GI50 (A498): 0.00015 µM (active) | GI50 (OVCAR-4): 0.00201 µM (active) | GI50 (MDA-MB-231): 0.0243 nM (active) | GI50 (A549): 0.000148 µM (active) | GI50 (NCI/ADR-RES): 0.0619 µM (active) | GI50 (OVCAR-8): 0.000255 µM (active) | GI50 (T47D): 0.0439 nM (active) | GI50 (SW-620): 0.000153 µM (active) | GI50 (HCC 2998): < 0.01 µM (active) | GI50 (TK-10): 0.000226 µM (active) | GI50 (MOLT-4): 0.000134 µM (active) | GI50 (HOP-62): 9.79e-05 µM (active) | GI50 (OVCAR-3): 0.000412 µM (active) | GI50 (RPMI-8226): 0.000147 µM (active) | GI50 (NCI-H226): 0.000123 µM (active) | GI50 (HCT-116): 9.2e-05 µM (active) | GI50 (SF-539): 6.98e-05 µM (active) | GI50 (XF498): 0.00285 µM (active) | GI50 (HT-29): 0.000131 µM (active) | GI50 (MDA-MB-435): 10 pM (active) | GI50 (EKVX): 0.00102 µM (active) | GI50 (NCI-H460): 0.00124 µM (active) | GI50 (PC-3): 0.0488 nM (active) | GI50 (HCT-15): 0.0331 µM | GI50 (SNB-78): 0.0446 µM (active) | GI50 (ACHN): 0.00452 µM (active) | GI50 (SF-295): 0.000117 µM (active) | GI50 (HOP-18): 0.00412 µM (active) | GI50 (SNB-19): 0.000116 µM (active) | GI50 (DLD-1): 0.0217 µM (active) | GI50 (SNB-75): 0.000207 µM (active) | GI50 (SK-MEL-28): 9.98e-05 µM (active) | GI50 (KM-20L2): 0.00288 µM (active) | GI50 (DMS-114): 0.00291 µM (active) | GI50 (M19-MEL): 0.00252 µM (active) | GI50 (KM12): 0.000154 µM (active) | GI50 (CAKI-1): 0.00159 µM (active) | GI50 (SF-268): 0.000318 µM (active) | GI50 (HOP-92): 0.000366 µM (active) | GI50 (SN12C): 0.000174 µM (active) | GI50 (DMS-273): 0.00673 µM (active) | GI50 (MDA-N): 0.0217 nM (active) | GI50 (M14): 0.000299 µM (active) | GI50 (DU-145): 0.0455 nM (active) | GI50 (MCF7): 0.0222 nM (active) | GI50 (UO-31): 0.00731 µM (active) | GI50 (UACC-62): 0.000188 µM (active) | GI50 (RXF 393): 0.0008 µM (active) | GI50 (CCRF-CEM): 0.000117 µM (active) | GI50 (NCI-H23): 0.000125 µM (active) | GI50 (Hs-578T): 0.0361 nM (active)

CCOc1ccccc1/N=N/c1c(-c2ccccc2)nn(C(=O)CC(=O)Nc2cccc(Cl)c2)c1-c1ccccc1
GI50 (SK-MEL-5): 52.2 µM (inactive) | GI50 (OVCAR-4): 23.1 µM (inactive) | GI50 (A549): 54 µM (inactive) | GI50 (Malme-3M): > 100 µM (inactive) | GI50 (IGROV-1): 68.9 µM (inactive) | GI50 (COLO 205): > 100 µM (inactive) | GI50 (OVCAR-8): 63.5 µM (inactive) | GI50 (SK-OV-3): > 100 µM (inactive) | GI50 (SW-620): > 100 µM (inactive) | GI50 (SR): 61 µM (inactive) | GI50 (NCI-H522): 40.5 µM (inactive) | GI50 (U-251): 39.5 µM (inactive) | GI50 (HCC 2998): 26.2 µM (inactive) | GI50 (TK-10): > 100 µM (inactive) | GI50 (MOLT-4): 51.6 µM (inactive) | GI50 (HOP-62): 72.9 µM (inactive) | GI50 (OVCAR-3): 24.7 µM (inactive) | GI50 (RPMI-8226): 46.9 µM (inactive) | GI50 (NCI-H226): 64.1 µM (inactive) | GI50 (HCT-116): 35.1 µM (inactive) | GI50 (SF-539): 62.1 µM (inactive) | GI50 (XF498): 62.4 µM (inactive) | GI50 (HT-29): 30 µM (inactive) | GI50 (EKVX): 41.1 µM (inactive) | GI50 (NCI-H460): 44.6 µM (inactive) | GI50 (786-0): 89.1 µM (inactive) | GI50 (SNB-78): 59.3 µM (inactive) | GI50 (SK-MEL-2): > 100 µM (inactive) | GI50 (ACHN): 18.7 µM (inactive) | GI50 (SF-295): 50.4 µM (inactive) | GI50 (HOP-18): > 100 µM (inactive) | GI50 (LXFL 529): 39.5 µM (inactive) | GI50 (K562): 32.2 µM (inactive) | GI50 (SNB-19): 68.9 µM (inactive) | GI50 (LOX IMVI): 35.7 µM (inactive) | GI50 (DLD-1): 20.4 µM (inactive) | GI50 (SNB-75): 33.8 µM (inactive) | GI50 (SK-MEL-28): 31.9 µM (inactive) | GI50 (KM-20L2): 68.2 µM (inactive) | GI50 (DMS-114): 15.9 µM (inactive) | GI50 (M19-MEL): 76.6 µM (inactive) | GI50 (KM12): 31.8 µM (inactive) | GI50 (CAKI-1): 43.1 µM (inactive) | GI50 (SF-268): 29.2 µM (inactive) | GI50 (HOP-92): 50.7 µM (inactive) | GI50 (SN12C): 40.4 µM (inactive) | GI50 (DMS-273): 22.5 µM (inactive) | GI50 (OVCAR-5): 50.8 µM (inactive) | GI50 (M14): > 100 µM (inactive) | GI50 (UO-31): 19.2 µM (inactive) | GI50 (UACC-62): 39.6 µM (inactive) | GI50 (HL-60): 58.6 µM (inactive) | GI50 (RXF 393): 95.7 µM (inactive) | GI50 (UACC-257): 98.2 µM (inactive) | GI50 (CCRF-CEM): 37.8 µM (inactive) | GI50 (NCI-H23): 61.8 µM (inactive)
